Counter-ions that a name gives are not always drawn. Like-named read-outs stand apart in the source and are kept apart here.
Experiments:
human NTCP [1] = biological target: T1, human NTCP (Homo sapiens, UniProt Q14973); assay: Screening fluorescent competitive Myrcludex B-FITC binding assay (96-well, 10 µM drug)
T1 sequence (Q14973 1-349): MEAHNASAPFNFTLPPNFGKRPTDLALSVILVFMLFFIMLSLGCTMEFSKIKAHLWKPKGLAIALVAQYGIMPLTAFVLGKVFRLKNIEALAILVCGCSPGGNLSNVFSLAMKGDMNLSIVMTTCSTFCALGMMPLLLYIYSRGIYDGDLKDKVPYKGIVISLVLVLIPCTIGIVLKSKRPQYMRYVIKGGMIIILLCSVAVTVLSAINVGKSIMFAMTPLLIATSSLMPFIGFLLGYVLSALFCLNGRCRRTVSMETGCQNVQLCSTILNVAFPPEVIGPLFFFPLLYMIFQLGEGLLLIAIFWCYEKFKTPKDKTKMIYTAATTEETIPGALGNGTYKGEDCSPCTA

human NTCP [2] = biological target: T1, human NTCP; assay: Screening taurocholate uptake assay (96-well, [14C]taurocholate, 10 µM drug)
[3] = Prestwick library screen, 10 µM drug, B-score of Myrcludex B-FITC binding
[4] = Prestwick library screen, 10 µM drug, B-score of taurocholate uptake
[5] = combined ranking from functional and binding assay B-scores
[6] = screen, 10 µM drug, Myrcludex B-FITC binding
[7] = combined ranking from functional and binding screening assays
[8] = screen, 10 µM drug, taurocholate uptake
[9] = Prestwick library screen, Myrcludex B-FITC binding, 10 µM drug
[10] = Prestwick library screen, taurocholate uptake, 10 µM drug
[11] = ranking score beside the functional and binding assay B-scores of the screen

## CC(C)NCC(O)c1ccc(O)c(O)c1.Cl (single isomer, unassigned; (-)) [(-)-Isoproterenol hydrochloride]
Human NTCP [1]; [3]
  B-score binding assay: 0.852
Human NTCP [2]; [4]
  B-score functional assay: 0.061
Human NTCP [2]; [5]
  Ranking score: 845.999

## O=c1[nH]cc(F)c(=O)[nH]1 [5-fluorouracil]
Human NTCP [1]; [6]
  B-score binding assay: -1.388
Human NTCP [2]; [7]
  Ranking score: 327.242
Human NTCP [2]; [8]
  B-score functional assay: -0.016

## CCCCOc1ccc(OCCCN2CCOCC2)cc1 [Pramoxine hydrochloride]
Human NTCP [1]; [3]
  B-score binding assay: 0.619
Human NTCP [2]; [4]
  B-score functional assay: 1.223
Human NTCP [2]; [5]
  Ranking score: 1022.18

## Cn1c([N+](=O)[O-])cnc1COC(N)=O [Ronidazole]
Human NTCP [1]; [6]
  B-score binding assay: -0.252
Human NTCP [2]; [7]
  Ranking score: 432.42
Human NTCP [2]; [8]
  B-score functional assay: -0.446

## CCCC[N+]1(C)[C@@H]2C[C@@H](OC(=O)[C@H](CO)c3ccccc3)C[C@H]1[C@@H]1O[C@@H]12.[Br-] (stereo partly drawn) [Butylscopolammonium (n-) bromide]
Human NTCP [1]; [6]
  B-score binding assay: -0.108
Human NTCP [2]; [7]
  Ranking score: 409.241
Human NTCP [2]; [8]
  B-score functional assay: -0.739

## CC1(C)S[C@@H]2[C@H](NC(=O)Cc3ccccc3)C(=O)N2[C@H]1C(=O)O.CC1(C)S[C@@H]2[C@H](NC(=O)Cc3ccccc3)C(=O)N2[C@H]1C(=O)O.c1ccc(CNCCNCc2ccccc2)cc1 [Benzathine benzylpenicillin]
Human NTCP [1]; [9]
  B-score binding assay: 0.21
Human NTCP [2]; [10]
  B-score functional assay: -0.072
Human NTCP [2]; [11]
  Ranking score: 672.134

## CNC(=C[N+](=O)[O-])NCCSCc1csc(CN(C)C)n1 [Nizatidine]
Human NTCP [1]; [3]
  B-score binding assay: 1.375
Human NTCP [2]; [4]
  B-score functional assay: 0.271
Human NTCP [2]; [5]
  Ranking score: 960.129

## Cn1cnc([N+](=O)[O-])c1Sc1ncnc2nc[nH]c12 [Azathioprine]
Human NTCP [1]; [3]
  B-score binding assay: 1.035
Human NTCP [2]; [4]
  B-score functional assay: 1.292
Human NTCP [2]; [5]
  Ranking score: 1083.5

## COc1ccc(C(=O)N2CCCC2=O)cc1 [Aniracetam]
Human NTCP [1]; [6]
  B-score binding assay: -0.157
Human NTCP [2]; [7]
  Ranking score: 340.074
Human NTCP [2]; [8]
  B-score functional assay: -1.196

## CCCc1cc(C(N)=S)ccn1 [Prothionamide]
Human NTCP [1]; [9]
  B-score binding assay: 2.241
Human NTCP [2]; [10]
  B-score functional assay: -0.17
Human NTCP [2]; [11]
  Ranking score: 776.121

## N[C@@H]1C[C@H]1c1ccccc1 [Tranylcypromine hydrochloride]
Human NTCP [1]
  B-score binding assay: 1.095
Human NTCP [2]
  B-score functional assay: 0.857
  Ranking score: 1041.86

## C[C@]12CCC(=O)C=C1C=C[C@@H]1[C@@H]2CC[C@@]2(C)[C@H]1CC[C@@]2(O)CCC(=O)[O-].[K+] [Canrenoic acid potassium salt]
Human NTCP [1]; [9]
  B-score binding assay: 0.007
Human NTCP [2]; [10]
  B-score functional assay: 0.356
Human NTCP [2]; [11]
  Ranking score: 751.562

## COc1ccc2[nH]c([S+]([O-])Cc3ncc(C)c(OC)c3C)nc2c1 (stereo not drawn) [Omeprazole]
Human NTCP [1]; [6]
  B-score binding assay: -0.678
Human NTCP [2]; [7]
  Ranking score: 423.789
Human NTCP [2]; [8]
  B-score functional assay: -0.074

## CC[C@H]1OC(=O)[C@H](C)[C@@H](O[C@H]2C[C@@](C)(OC)[C@@H](O)[C@H](C)O2)[C@H](C)[C@@H](O[C@@H]2O[C@H](C)C[C@H](N(C)C)[C@H]2O)[C@](C)(O)C[C@@H](C)CN(C)[C@H](C)[C@@H](O)[C@]1(C)O [Azithromycin]
Human NTCP [1]; [3]
  B-score binding assay: 2.513
Human NTCP [2]; [4]
  B-score functional assay: 0.119
Human NTCP [2]; [5]
  Ranking score: 972.082

## Cn1c(=O)c2[nH]cnc2n(C)c1=O [Theophylline monohydrate]
Human NTCP [1]; [6]
  B-score binding assay: 0.205
Human NTCP [2]; [7]
  Ranking score: 321.683
Human NTCP [2]; [8]
  B-score functional assay: -1.998

## O=C(NCCN1CCOCC1)c1ccc(Cl)cc1 [Moclobemide]
Human NTCP [1]; [9]
  B-score binding assay: -0.149
Human NTCP [2]; [10]
  B-score functional assay: 1.399
Human NTCP [2]; [11]
  Ranking score: 766.363

## CC(=O)[C@H]1CC[C@H]2[C@@H]3CC=C4C[C@@H](O)CC[C@]4(C)[C@H]3CC[C@]12C [Pregnenolone]
Human NTCP [1]; [6]
  B-score binding assay: 0.35
Human NTCP [2]; [7]
  Ranking score: 297.104
Human NTCP [2]; [8]
  B-score functional assay: -2.394

## CCC(=O)O[C@@](Cc1ccccc1)(c1ccccc1)[C@@H](C)CN(C)C [Levopropoxyphene napsylate]
Human NTCP [1]
  B-score binding assay: 0
Human NTCP [2]
  B-score functional assay: 0.245
  Ranking score: 726.763

## C[N+]12CCC(CC1)C(OC(=O)C(O)(c1ccccc1)c1ccccc1)C2 (stereo not drawn) [Clidinium bromide]
Human NTCP [1]; [3]
  B-score binding assay: 0.853
Human NTCP [2]; [4]
  B-score functional assay: 0.121
Human NTCP [2]; [5]
  Ranking score: 877.232

## O=P(O)(O)C(O)(Cn1ccnc1)P(=O)(O)O [Zoledronic acid hydrate]
Human NTCP [1]; [6]
  B-score binding assay: -0.262
Human NTCP [2]; [7]
  Ranking score: 422.203
Human NTCP [2]; [8]
  B-score functional assay: -0.476

## CCN(CC)C(=O)C1(c2ccccc2)CC1CN.Cl (stereo not drawn) [Milnacipran hydrochloride]
Human NTCP [1]; [3]
  B-score binding assay: 0.152
Human NTCP [2]; [4]
  B-score functional assay: 1.822
Human NTCP [2]; [5]
  Ranking score: 955.465

## CC(C)c1cccc(C(C)C)c1O [Propofol]
Human NTCP [1]
  B-score binding assay: -0.036
Human NTCP [2]
  B-score functional assay: -4.147
  Ranking score: 144.551

## CCN(CC)C(C)CN1c2ccccc2Sc2ccccc21 (stereo not drawn) [Ethopropazine hydrochloride]
Human NTCP [1]; [9]
  B-score binding assay: -0.236
Human NTCP [2]; [10]
  B-score functional assay: 0.753
Human NTCP [2]; [11]
  Ranking score: 687.443

## Cl.NC1CCN(c2nc3c(cc2F)c(=O)c(C(=O)O)cn3-c2ccc(F)cc2F)C1 (stereo not drawn) [Tosufloxacin hydrochloride]
Human NTCP [1]; [9]
  B-score binding assay: 0.338
Human NTCP [2]; [10]
  B-score functional assay: 0.009
Human NTCP [2]; [11]
  Ranking score: 746.768

## COc1ccc(C[C@@H](C)NC[C@H](O)c2ccc(O)c(NC=O)c2)cc1.COc1ccc(C[C@@H](C)NC[C@H](O)c2ccc(O)c(NC=O)c2)cc1.O=C(O)/C=C/C(=O)O [Formoterol fumarate]
Human NTCP [1]; [9]
  B-score binding assay: -0.165
Human NTCP [2]; [10]
  B-score functional assay: 1.513
Human NTCP [2]; [11]
  Ranking score: 764.904

## CN1CCCCC1CCN1c2ccccc2Sc2ccc([S+](C)[O-])cc21 (stereo not drawn) [Mesoridazine besylate]
Human NTCP [1]; [3]
  B-score binding assay: 0.002
Human NTCP [2]; [4]
  B-score functional assay: 2.438
Human NTCP [2]; [5]
  Ranking score: 892.285

## COC(=O)Nc1nc2ccc(C(=O)c3ccccc3)cc2[nH]1 [Mebendazole]
Human NTCP [1]; [6]
  B-score binding assay: -0.531
Human NTCP [2]; [7]
  Ranking score: 327.443
Human NTCP [2]; [8]
  B-score functional assay: -0.824

## C[C@]12CC[C@H](O)C[C@H]1CC[C@@H]1[C@@H]2CC[C@]2(C)[C@@H](C3=CC(=O)OC3)CC[C@]12O [Digitoxigenin]
Human NTCP [1]; [6]
  B-score binding assay: 1.274
Human NTCP [2]; [7]
  Ranking score: 348.633
Human NTCP [2]; [8]
  B-score functional assay: -2.282

## C[C@]12Cc3c[nH]nc3C[C@@H]1CC[C@@H]1[C@@H]2CC[C@@]2(C)[C@H]1CC[C@]2(C)O [Stanozolol]
Human NTCP [1]
  B-score binding assay: -2.248
Human NTCP [2]
  B-score functional assay: -1.951
  Ranking score: 107.121

## C[C@]12C=CC(=O)C=C1CC[C@H]1[C@@H]3C[C@@H](O)[C@](O)(C(=O)CO)[C@@]3(C)C[C@H](O)[C@@]12F [Triamcinolone]
Human NTCP [1]; [9]
  B-score binding assay: -0.283
Human NTCP [2]; [10]
  B-score functional assay: 1.923
Human NTCP [2]; [11]
  Ranking score: 735.139

## NCC[C@H](O)C(=O)N[C@@H]1C[C@H](N)[C@@H](O[C@H]2O[C@H](CN)[C@@H](O)[C@H](O)[C@H]2O)[C@H](O)[C@H]1O[C@H]1O[C@H](CO)[C@@H](O)[C@H](N)[C@H]1O [Amikacin hydrate]
Human NTCP [1]; [3]
  B-score binding assay: 0.912
Human NTCP [2]; [4]
  B-score functional assay: 1.395
Human NTCP [2]; [5]
  Ranking score: 1074.44

## COC(=O)C1=C(C)NC(C)=C(C(=O)OCCN(C)Cc2ccccc2)C1c1cccc([N+](=O)[O-])c1 (stereo not drawn) [Nicardipine hydrochloride]
Human NTCP [1]; [6]
  B-score binding assay: -1.032
Human NTCP [2]; [7]
  Ranking score: 378.616
Human NTCP [2]; [8]
  B-score functional assay: -0.022

## CC(C)(C(=O)c1cccnc1)c1cccnc1 [Metyrapone]
Human NTCP [1]; [9]
  B-score binding assay: -0.063
Human NTCP [2]; [10]
  B-score functional assay: 0.78
Human NTCP [2]; [11]
  Ranking score: 759.235

## Cc1nnc(SCC2=C(C(=O)O)N3C(=O)[C@@H](NC(=O)Cn4cnnn4)[C@H]3SC2)s1 [Cefazolin sodium salt]
Human NTCP [1]; [9]
  B-score binding assay: 0.04
Human NTCP [2]; [10]
  B-score functional assay: 0.093
Human NTCP [2]; [11]
  Ranking score: 718.895

## CCN(CC)CCNC(=O)c1cc(S(C)(=O)=O)ccc1OC [Tiapride hydrochloride]
Human NTCP [1]; [3]
  B-score binding assay: 0.4
Human NTCP [2]; [4]
  B-score functional assay: 1.625
Human NTCP [2]; [5]
  Ranking score: 1010.78

From PMC5681660, “Reduced hepatitis B and D viral entry using clinically applied drugs as novel inhibitors of the bile acid transporter NTCP” (Scientific Reports, 2017)
